Measurements: ChEMBL document CHEMBL1151443, “Activity of the novel macrolide BAL19403 against ribosomes from erythromycin-resistant Propionibacterium acnes” (Antimicrob Agents Chemother, 2007)
Converted amounts (≈) assume the structure as drawn.

Legend:
[1] = biological target: Bacterial 70S ribosome; experiment: Displacement of [14C]ERY from erythromycin-sensitive Escherichia coli BL21 ribosome; format: subcellular
[2] = biological target: Bacterial 70S ribosome; experiment: Inhibition of ribosomal activity in erythromycin-resistant Propionibacterium acnes SW54EA with A2058G mutation in domain V of 23S rRNA assessed as luciferase production by transcriptional and translational assay; format: subcellular, Cutibacterium acnes
[3] = biological target: Bacterial 70S ribosome; experiment: Inhibition of ribosomal activity in erythromycin-sensitive Propionibacterium acnes EG7NS assessed as luciferase production by transcriptional and translational assay; format: subcellular, Cutibacterium acnes
[4] = biological target: Bacterial 70S ribosome; experiment: Inhibition of ribosomal activity in erythromycin-resistant Propionibacterium acnes P95 with G2057A mutation in domain V of 23S rRNA assessed as luciferase production by transcriptional and translational assay; format: subcellular, Cutibacterium acnes
[5] = biological target: Bacterial 70S ribosome (Bacteria) (UniProt P0A7V0+P60723+P0AG67+P0A7R5+P0A7R9+P0A7S3+P0A7S9+P0AG59+P0ADZ4+P0A7T3+P0AG63+P0A7T7+P0A7U3+P0A7U7+P68679+P0A7V3+P0A7V8+P0A7W1+P02358+P02359+P0A7W7+P0A7X3+P0A7J3+P0A7J7+P0AA10+P0ADY3+P02413+P0ADY7+P0AG44+P0C018+P0A7K6+P0A7L0+P0A7L3+P0AG48+P61175+P0ADZ0+P60624+P68919+P0A7L8+P0A7M2+P0A7M6+P60422+P0AG51+P0A7N1+P0A7M9+P0A7N4+P0A7N9+P0A7P5+P0A7Q1+Q2EEQ2+P0A7Q6+P60438+P62399+P0AG55+P0A7K2); experiment: (§1) Inhibition of ribosomal activity in erythromycin-resistant Propionibacterium acnes GE4E carrying Erm(X) gene assessed as luciferase production by transcriptional and translational assay; format: subcellular; details: Cutibacterium acnes, concentration not given here
[6] = biological target: Bacterial 70S ribosome; experiment: as §1; format: subcellular, Cutibacterium acnes
[7] = Inhibition of ribosomal activity in erythromycin-sensitive Escherichia coli BL21 S30 extracts assessed as inhibition of luciferase activity by transcriptional and translational assay; format: subcellular, Ribosome
[8] = biological target: Bacterial 70S ribosome; experiment: Inhibition of ribosomal activity in erythromycin-sensitive Escherichia coli BL21 assessed as luciferase production by transcriptional and translational assay; format: subcellular
[9] = tested on: Cutibacterium acnes; experiment: Antibacterial activity against erythromycin-resistant Propionibacterium acnes with G2057A mutation in domain V of 23S rRNA; format: functional
[10] = tested on: Cutibacterium acnes; experiment: Antibacterial activity against erythromycin-resistant Propionibacterium acnes with A2059 mutation in domain V of 23S rRNA; format: functional
[11] = biological target: Bacterial 70S ribosome; experiment: Displacement of [14C]ERY from erythromycin-sensitive Propionibacterium acnes EG7NS ribosome; format: subcellular, Cutibacterium acnes
[12] = biological target: Bacterial 70S ribosome; experiment: Displacement of [14C]ERY from ribosome in erythromycin-resistant Propionibacterium acnes P95 with G2057A mutation in domain V of 23S rRNA; format: subcellular, Cutibacterium acnes
[13] = tested on: Cutibacterium acnes; experiment: Antibacterial activity against erythromycin-sensitive Propionibacterium acnes EG7NS; format: functional
[14] = tested on: Cutibacterium acnes; experiment: Antibacterial activity against erythromycin-resistant Propionibacterium acnes SW54EA with 23S rRNA A2058G mutant; format: functional
[15] = tested on: Escherichia coli; experiment: Antibacterial activity against Escherichia coli BL21; format: functional
[16] = tested on: Cutibacterium acnes; experiment: Antibacterial activity against erythromycin-resistant Propionibacterium acnes with A2058G mutation in domain V of 23S rRNA; format: functional
[17] = tested on: Cutibacterium acnes; experiment: Antibacterial activity against erythromycin-resistant Propionibacterium acnes GE4E carrying Erm(X) gene; format: functional
[18] = tested on: Cutibacterium acnes; experiment: Antibacterial activity against erythromycin-resistant Propionibacterium acnes P95 with 23S rRNA G2057A mutant; format: functional

SMILES	Kd [1]	IC50 [2]	IC50 [3]	IC50 [4]	inhibition [5]	IC50 [6]	IC50 [7]	IC50 [8]	MIC [9]	MIC [10]	Kd [11]	Kd [12]	MIC [13]	MIC [14]	MIC [15]	MIC [16]	MIC [17]	MIC [18]
CC[C@H]1OC(=O)[C@H](C)[C@@H](O[C@H]2C[C@@](C)(OC)[C@@H](O)[C@H](C)O2)[C@H](C)[C@@H](O[C@@H]2O[C@H](C)C[C@H](N(C)C)[C@H]2O)[C@](C)(OC)C[C@@H](C)C(=O)[C@H](C)[C@H]2[C@H](SCCn3cnc4cccnc43)C(=O)O[C@@]21C	26 nM	260 nM	110 nM	120 nM	48%	190 nM	850 nM	420 nM	–	–	–	–	–	–	–	–	–	–
CC[C@H]1OC(=O)[C@H](C)[C@@H](O[C@H]2C[C@@](C)(OC)[C@@H](O)[C@H](C)O2)[C@H](C)[C@@H](O[C@@H]2O[C@H](C)C[C@H](N(C)C)[C@H]2O)[C@](C)(O)C[C@@H](C)C(=O)[C@H](C)[C@@H](O)[C@]1(C)O [ERYTHROMYCIN]	11 nM	87000 nM	170 nM	2200 nM	52%	1900 nM	2130 nM	760 nM	1 µg/mL (≈ 1.36 µM)	> 128 µg/mL	29 nM	> 2100 nM	≤ 0.06 µg/mL	> 512 µg/mL	128 µg/mL (≈ 174 µM)	> 128 µg/mL	> 512 µg/mL	4 µg/mL (≈ 5.45 µM)
